The values below come from US20100216795A1, “TNIK INHIBITOR AND THE USE” (priority 2008, published 2010).

In data set [1] the target is T1, human TNIK (N-terminal segment, TNIK_N) (Homo sapiens, UniProt Q9UKE5).
T1 construct: made in house; host or cells: Sf21 insect cells (baculovirus)
Nature of the data set: TNIK kinase assay (mobility shift). The settings on record: 25 μM ATP, 1 h at room temperature. The class given is biochemical. The text has this: A cDNA encoding the N-terminal segment (TNIK_N, residues 1-314) containing the kinase domain of human TNIK (NM_015028.1) was amplified from cDNA mixture synthesized from human tissue (Biochain) by PCR using the following primers: 5′-[…]-3′ ([SEQ ID NO:1]: forward primer, the underlined nucleotides indicates the location of a EheI site); 5′-[…]-3′ ([SEQ ID NO:2]: reverse primer, the underlined nucleotides indicates the location of a NotI site). The cDNA was subcloned into baculovirus transfer vector pFastBac_GSTb that includes protease cleavage site and glutathione S-transferase purification tag (GST-tag). The plasmid was purified and the insertion of the pFastBac_GSTb-TNIK_N was confirmed by DNA sequencing. Then E. coli DH10Bac competent cells were transformed with the plasmid to prepare the recombinant bacmid according to the instructions for the Bac-to-Bac™ baculovirus expression systems (Invitrogen). The Sf9 cells were transfected with the recombinant bacmid containing pFastBac_GSTb-TNIK_N using Cellfectin Reagent (Invitrogen) in SF-900II serum free media (Invitrogen). The viral supernatant was collected from the medium 72 h after transfection. The virus was amplified three times by infecting actively growing Sf9 or Sf21 cells in Grace's insect media (Invitrogen) supplemented with 10% FCS and an antibiotic-antimycotic reagent (Invitrogen) for 72 h at 27° C. in T-flask or roller bottles. The titer of amplified TNIK_N virus was estimated at 2.36×10^8 pfu/ml by using BacPAK™ Baculovirus Rapid Titer kit (Clontech).
Log-phase Sf21 cells (2×10^6 cells/ml) in the Grace's insect media were infected with the recombinant baculovirus at MOI of 3.0 and incubated in roller bottles (250 ml media per bottle) for 72 h at 27° C., after which, the cells were collected by centrifugation, and the cell pellet washed with cold PBS and kept at −80° C. until purification. The following purification procedures were carried out at 4° C. The frozen cells were thawed on ice and lysed in lysis buffer (50 mM Tris-HCl, pH 7.5, 150 mM NaCl, 1% Nonidet P-40, 5 mM DTT, 0.5 mM EDTA, 0.5 mM EGTA) supplemented with 1 mM phenylmethansulfonylfluoride, 2 μg/ml leupeptin, 2 μg/ml aprotinin, 1 mM NaF, 100 μM sodium orthovanadate, and 1 μM cantharidin by sonication. The suspended lysate was cleared by centrifugation at 9000 g for 20 min and the supernatant was incubated for 1 h with glutathione Sepharose beads (GE Healthcare). The beads were suspended in buffer-H (50 mM Tris-HCl, pH 7.5, 1 M NaCl, 1 mM DTT, 0.5 mM EDTA, 0.5 mM EGTA and 0.05% Brij35) and washed with buffer-H followed by buffer-L (50 mM Tris-HCl, pH 7.5, 150 mM NaCl, 1 mM DTT, 0.5 mM EDTA, 0.5 mM EGTA, 0.05% Brij35) in an Econo-pack column (BIO-RAD). The bound TNIK_N was eluted with elution buffer (50 mM Tris-HCl, pH 8.0, 150 mM NaCl, 1 mM DTT, 10% glycerol, 0.5 mM EDTA, 0.5 mM EGTA and 5 mM reduced glutathione). The eluted fractions were collected and determined the protein concentration by Bradford reagent (BIO-RAD). The TNIK_N fractions were pooled and desalted using 10DG column (BIORAD) equilibrated with the storage buffer (50 mM Tris-HCl, pH 7.5, 150 mM NaCl, 1 mM DTT, 10% glycerol, 0.05% Brij35). The purified TNIK_N was characterized by electrophoresis using 4-20% polyacrylamide gels and matrix-assisted laser desorption/ionization reflection time-of-flight (MALDI-TOF) mass spectrometry on a Voyager-DE RP MALDI/TOF (Applied Biosystems). TNIK_N was confirmed by the molecular weight and MASCOT Peptide Mass Fingerprint.
The kinase assays were conducted in a 20 μl volume using 384-well plates (Greiner). The reaction mixture consists of compound or vehicle (1% DMSO), 0.08 ng/μl TNIK_N, 1 μM FITC-labeled substrate peptides, FITC-x-Lys-Tyr-Lys-Thr-Leu-Arg-Gln ([SEQ ID NO.3], x: ε-aminocaproic acid), 20 mM Hepes, pH 7.5, 0.01% Triton X-100, 5 mM MgCl2, 25 μM ATP and 2 mM DTT. As blank, TNIK_N was excluded from the reaction mixture of vehicle (1% DMSO). […]

A further data set has as its system HCT-116 cells. Nature of the data set: HCT-116 xenograft growth after intratumoral siRNA. The class given is in vivo, BALB/c nu/nu nude mice. The settings on record: HCT-116 tumours; for excised tumours versus not treated, atelocollagen only or control RNA: 18 days after the injection of siRNA; for volume of xenografts: single injection of siRNA with atelocollagen into the tumour, monitored 18 days. Here is the method: We next examined the effects of TNIK on the growth of human colon cancer cells in vivo (FIG. 2). HCT-116 cells were implanted in the flank of immunodeficient mice. One week after the inoculation, siRNA against TNIK (12 or 13) mixed with atelocollagen (Takeshita, F. et al. Efficient delivery of small interfering RNA to bone-metastatic tumors by using atelocollagen in vivo. Proc Natl Acad Sci USA 102, 12177 (2005)) was injected directly into the tumours (224.5±8.9 mm^3 in size). Three days after the siRNA injection, some tumours were excised and the silencing of TNIK mRNA was confirmed by real-time PCR (FIG. 2b). The volume of xenografts was monitored for 18 days after siRNA injection (FIG. 2a). […] We observed similar regression of established tumours after a single injection of siRNA against TNIK in two other colorectal cancer cell lines, DLD1 and WiDr (FIGS. 3 and 4).
a, HCT-116 cells were inoculated into BALB/c nu/nu nude mice subcutaneously. The developed tumours were not treated, or treated with only atelocollagen, control RNA (X or IX) or siRNA against TNIK (12 or 13). The volume of tumours (n=8 per group) was monitored as indicated. #, P<0.001 (Mann-Whitney U-test); Bars, SE; N.S., not significant. b, mRNA expression of TNIK in tumours injected with siRNA (n=3 per group). c, d, Representative appearance of mice and excised tumours 18 days after the injection of siRNA. Columns indicate the average weight of excised tumours (n=8 per group). $, P<0.005 (Mann-Whitney U-test); Bars, SE.
5×10^6 HCT-116, DLD1 or WiDr cells suspended in 0.1 ml of PBS were subcutaneously inoculated into the flanks of 5-week-old female BALB/c nu/nu nude mice (SLC, Tokyo, Japan). One week later the developed tumours were treated with siRNA together with atelocollagen (AteloGene; KOKEN, Tokyo, Japan) (Takeshita, F. et al. Efficient delivery of small interfering RNA to bone-metastatic tumors by using atelocollagen in vivo. Proc Natl Acad Sci USA 102, 12177 (2005)). The final concentration of siRNA was 30 μM and that of atelocollagen was 0.5%. A 0.2-ml volume of siRNA solution was injected directly into each tumour. Tumour volume was determined as V=A×[…], where A and B represent the largest and smallest dimensions (Bergers, G et al. Effects of angiogenesis inhibitors on multistage carcinogenesis in mice. Science 284, 808 (1999)).

T1 sequence (Q9UKE5 1-314): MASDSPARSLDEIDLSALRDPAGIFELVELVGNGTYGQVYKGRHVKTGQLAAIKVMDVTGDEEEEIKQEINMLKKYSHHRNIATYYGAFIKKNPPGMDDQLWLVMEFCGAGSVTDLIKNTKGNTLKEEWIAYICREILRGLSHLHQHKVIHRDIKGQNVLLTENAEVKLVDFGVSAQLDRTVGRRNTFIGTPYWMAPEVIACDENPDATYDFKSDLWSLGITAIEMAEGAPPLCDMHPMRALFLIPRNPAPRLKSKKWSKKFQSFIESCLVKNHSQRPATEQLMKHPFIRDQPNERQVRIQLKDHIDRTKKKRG

Take `COc1ccc(Nc2nc(C(N)=O)c(NC(=O)c3ccc(N)c(N)c3)s2)cc1` [Compound A103, 5-(3,4-diaminobenzamido)-2-(4-methoxyphenyl-amino)thiazole-4-carboxamide]: in data set [1], the IC50 stood at 10 nM. For “siRNA against TNIK (12): small interfering RNA against TNIK, sense 5′-CGACAUACCCAGACUGAUAUU-3′, synthesized by Dharmacon (antisense UAUCAGUCUGGGUAUGUCGUU; listed as RNA, chemistry not given here)”, in the data set with HCT-116 cells, the “excised tumours versus not treated, atelocollagen only or control RNA” value is reported as “significantly smaller” and the volume of xenografts result was “regressed almost completely”.

Consider “siRNA against TNIK (13): small interfering RNA against TNIK, sense 5′-GACCGAAGCUCUUGGUUACUU-3′, synthesized by Dharmacon (antisense GUAACCAAGAGCUUCGGUCUU; listed as RNA, chemistry not given here)”, for which, in the data set on HCT-116 cells, the “excised tumours versus not treated, atelocollagen only or control RNA” value was “significantly smaller” and the volume of xenografts entry was “regressed almost completely”.

By IC50 is commonly meant the concentration needed to halve the response being measured.
